The values that follow are results of earlier work, collected in US20220347185A1, “IBOGAINE FORMULATIONS” (CAAMTECH, INC., priority 2019, published 2022).

The test system of one data set is rats. Particulars: single dose, Rodriguez et al. 2020.
For another data set, the system named is heroin addicts. Conditions: 1962.
The conditions of data set [1]: Dzoljic et al. 1988.
Another data set has as its system humans. Particulars: Mash et al. 2000.
The subject of the next data set is mice. Particulars: da Silva et al. 2006.

On to `CC[C@H]1C[C@@H]2C[C@H]3c4[nH]c5ccc(OC)cc5c4CCN(C2)[C@@H]13` [ibogaine], for which the antidepressant effects result with rats is on record as “caused antidepressant effects”. In addition, the “effectiveness of multiple administrations versus a single dose” value in the data set with rats and mice (additional study results) is “more effective in multiple administrations over time than from a single dose”. Moreover, in the data set with rats and mice (rats and mice), the self-administration of opiates result is listed as “reduce or interrupt the self-administration of opiates”. Further, the “cravings and withdrawal symptoms” value with heroin addicts is “marked reductions in their cravings and withdrawal symptoms”. In data set [1], the “withdrawal from narcotics addiction” value is given as “relieve withdrawal from narcotics addiction”. In addition, the treating substance addiction result (review papers and meta-analyses) is listed as “effective for treating substance addiction”. Moreover, the treating opioid addiction entry (several current studies) is reported as “effective for treating opioid addiction”. For the same compound, the depressive symptoms result in the data set with humans is “significantly decreased depressive symptoms”.

For `CO[C@H]1C=C2[C@H]3CN(Cc4cc5c(cc43)OCO5)[C@H]2C[C@@H]1O` [montanine], in the data set with mice, the anticonvulsive effect result is on record as “anticonvulsive”, the antidepressive effect entry is given as “antidepressive effects” and the anxiolytic effect entry is reported as “anxiolytic”.

For the compound `CC[C@H]1C[C@@H]2C[C@H]3c4[nH]c5ccc(O)cc5c4CCN(C2)[C@@H]13` [noribogaine], in the data set with rats, the antidepressant effects entry is “caused antidepressant effects”.
